From ChEMBL document CHEMBL1201862, “PubChem BioAssay data set” (2004)
The source made the active and inactive calls.

Legend:
[1] = molecular target: T1, Serine/threonine-protein phosphatase (Candida dubliniensis (strain CD36 / CBS 7987 / NCPF 3949 / NRRLY-17841) (Yeast), UniProt B9W6M3); test: blockers of CaCl2-induced CDRE-lacZ signaling – S. cerevisiae, luminescence, secondary, dose response (AID 2388); type: functional, cell-based;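 also: yeast reporter cells carrying a calcineurin-responsive lacZ construct stimulated with calcium chloride; luminescent beta-galactosidase reporter signal in whole cells rather than isolated phosphatase activity; potency for inhibition where a drop in reporter signal means calcineurin blockade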
T1 sequence (B9W6M3 whole entry): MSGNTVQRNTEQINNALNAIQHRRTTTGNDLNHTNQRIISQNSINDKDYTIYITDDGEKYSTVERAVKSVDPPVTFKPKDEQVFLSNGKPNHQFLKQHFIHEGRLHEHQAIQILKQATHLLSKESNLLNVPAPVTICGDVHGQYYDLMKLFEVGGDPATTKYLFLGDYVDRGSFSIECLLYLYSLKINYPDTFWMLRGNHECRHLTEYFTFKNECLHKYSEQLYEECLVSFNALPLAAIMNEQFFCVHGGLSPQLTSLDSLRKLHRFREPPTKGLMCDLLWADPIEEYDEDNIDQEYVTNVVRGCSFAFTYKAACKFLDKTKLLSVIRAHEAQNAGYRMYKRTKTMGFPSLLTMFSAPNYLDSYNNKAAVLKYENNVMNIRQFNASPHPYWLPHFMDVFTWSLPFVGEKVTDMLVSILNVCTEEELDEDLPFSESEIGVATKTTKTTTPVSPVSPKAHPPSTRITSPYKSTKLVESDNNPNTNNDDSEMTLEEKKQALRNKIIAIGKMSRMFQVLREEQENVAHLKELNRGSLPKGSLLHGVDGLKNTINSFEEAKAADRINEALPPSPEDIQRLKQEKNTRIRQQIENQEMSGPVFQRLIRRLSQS

[2] = molecular target: ATP-dependent molecular chaperone HSP82 (Candida albicans (strain WO-1) (Yeast), UniProt C4YTQ8); test: steroid-induced GRE reporter decrease in yeast – S. cerevisiae, luminescence, Hsp90 inhibitor project, dose response (AID 2400); type: functional, cell-based;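 also: beta-galactosidase luminescence from glucocorticoid response element reporter as proxy for Hsp90 function; inhibitor potency where signal loss means Hsp90 inhibition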
cells = type: functional
[3] = fluconazole-exposed Candida albicans growth modulators – fluorescence, retest, confirmation (AID 2467); type: functional, cell-based
[4] = NIH-3T3 fibroblast cytotoxicity, dose response, cytotoxicity control, cell-based, fluorescence, Alamar Blue, secondary assay (AID 2327); type: functional;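 also: NIH-3T3 mouse fibroblasts cultured with fluconazole at 8 µg/mL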
[5] = HepG2 cell cytotoxicity, dose response, cytotoxicity control for non-replicating M. tuberculosis project (AID 489018); type: functional; conditions: Mycobacterium tuberculosis
[6] = molecular target: T2, Short transient receptor potential channel 4 (Mus musculus, UniProt Q9QUQ5); test: calcium entry via TRPC4 opening agents – cell-based, HEK293 TRPC4/mu-opioid, Fluo-4 calcium, dose response (AID 434937); type: functional
T2 sequence (Q9QUQ5 whole entry): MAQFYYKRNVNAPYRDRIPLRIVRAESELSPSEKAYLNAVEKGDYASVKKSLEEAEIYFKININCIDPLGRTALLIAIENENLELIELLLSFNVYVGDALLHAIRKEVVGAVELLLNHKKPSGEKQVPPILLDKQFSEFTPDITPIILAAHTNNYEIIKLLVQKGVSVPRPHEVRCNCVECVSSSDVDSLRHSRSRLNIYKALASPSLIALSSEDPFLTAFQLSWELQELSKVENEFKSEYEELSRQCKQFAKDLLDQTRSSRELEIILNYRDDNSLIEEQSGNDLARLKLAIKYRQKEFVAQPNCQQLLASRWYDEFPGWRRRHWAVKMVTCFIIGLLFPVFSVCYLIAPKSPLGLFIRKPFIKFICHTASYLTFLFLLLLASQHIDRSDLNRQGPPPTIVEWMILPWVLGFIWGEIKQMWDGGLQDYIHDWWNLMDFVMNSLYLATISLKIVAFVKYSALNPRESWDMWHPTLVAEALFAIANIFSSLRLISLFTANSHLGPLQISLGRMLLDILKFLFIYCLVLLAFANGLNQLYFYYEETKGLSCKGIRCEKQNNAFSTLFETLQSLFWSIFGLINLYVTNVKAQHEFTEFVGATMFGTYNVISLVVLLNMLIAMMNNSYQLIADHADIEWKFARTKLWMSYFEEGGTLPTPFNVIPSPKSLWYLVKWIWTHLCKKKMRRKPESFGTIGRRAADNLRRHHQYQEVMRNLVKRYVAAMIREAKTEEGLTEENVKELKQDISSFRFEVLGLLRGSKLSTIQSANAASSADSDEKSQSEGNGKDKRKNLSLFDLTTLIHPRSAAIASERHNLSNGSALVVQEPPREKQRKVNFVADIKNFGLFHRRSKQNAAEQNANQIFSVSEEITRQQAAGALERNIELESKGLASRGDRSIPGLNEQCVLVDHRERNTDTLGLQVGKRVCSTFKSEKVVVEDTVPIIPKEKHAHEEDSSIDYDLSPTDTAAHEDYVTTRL

[7] = THP-1 cell cytotoxicity, dose response, cytotoxicity control for non-replicating M. tuberculosis project (AID 489025); type: functional
[8] = molecular target: T1, Serine/threonine-protein phosphatase; test: Fluorescence Cell-Based Secondary Assay to Identify Inhibitors of Calcineurin. [Related pubchem assays (depositor defined):AID1979, AID2007]; type: functional
[9] = Vero E6 cell cytotoxicity, dose response, cytotoxicity control for non-replicating M. tuberculosis project, secondary assay (AID 492998); type: functional, VeroE6; conditions: Vero C1008
Cytochrome P450 3A4 = Cytochrome P450 3A4 (Homo sapiens, UniProt P08684);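 also: CYP3A4 tested as one member of a cytochrome P450 panel screen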
Cytochrome P450 3A4, sequence (P08684 whole entry): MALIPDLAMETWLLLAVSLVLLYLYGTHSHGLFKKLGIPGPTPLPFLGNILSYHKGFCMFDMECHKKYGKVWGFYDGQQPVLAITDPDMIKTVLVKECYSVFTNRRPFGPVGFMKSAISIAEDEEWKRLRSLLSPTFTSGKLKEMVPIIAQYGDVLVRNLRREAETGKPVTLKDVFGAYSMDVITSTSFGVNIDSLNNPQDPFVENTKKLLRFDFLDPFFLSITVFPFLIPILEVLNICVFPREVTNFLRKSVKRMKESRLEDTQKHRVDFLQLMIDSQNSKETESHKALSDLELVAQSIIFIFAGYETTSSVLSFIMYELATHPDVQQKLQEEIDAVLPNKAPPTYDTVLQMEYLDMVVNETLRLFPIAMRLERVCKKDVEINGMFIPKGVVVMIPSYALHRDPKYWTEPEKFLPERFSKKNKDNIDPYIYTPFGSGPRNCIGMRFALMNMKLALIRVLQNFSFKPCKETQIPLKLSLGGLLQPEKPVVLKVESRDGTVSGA

Cytochrome P450 1A2 = molecular target: T3, Cytochrome P450 1A2 (Homo sapiens, UniProt P05177);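 also: PubChem cytochrome P450 panel assay, CYP1A2 panel member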
T3 sequence (P05177 whole entry): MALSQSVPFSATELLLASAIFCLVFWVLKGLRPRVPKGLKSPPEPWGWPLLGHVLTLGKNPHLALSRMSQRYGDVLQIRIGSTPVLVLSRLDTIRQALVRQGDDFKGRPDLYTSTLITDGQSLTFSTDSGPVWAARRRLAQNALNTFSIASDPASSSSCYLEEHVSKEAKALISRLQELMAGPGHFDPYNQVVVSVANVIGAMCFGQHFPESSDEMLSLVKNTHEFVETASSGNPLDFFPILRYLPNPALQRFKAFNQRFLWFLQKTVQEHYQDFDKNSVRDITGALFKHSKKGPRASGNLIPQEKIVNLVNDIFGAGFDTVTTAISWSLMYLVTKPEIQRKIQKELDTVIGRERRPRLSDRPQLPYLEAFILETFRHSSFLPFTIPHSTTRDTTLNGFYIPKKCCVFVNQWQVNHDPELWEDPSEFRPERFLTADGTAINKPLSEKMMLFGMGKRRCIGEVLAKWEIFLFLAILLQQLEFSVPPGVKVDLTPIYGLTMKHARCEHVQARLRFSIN

Cytochrome P450 2C19 = Cytochrome P450 2C19 (Homo sapiens, UniProt P33261); test: Cytochrome panel assay with activity outcomes. Panel member name: p450-cyp2c19 Compounds with AC50 equal or less than 10 uM are considered active; type: functional
Cytochrome P450 2C9 = Cytochrome P450 2C9 (Homo sapiens, UniProt P11712)
Cytochrome P450 2D6 = Cytochrome P450 2D6 (Homo sapiens, UniProt P10635);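 also: CYP2D6 member of a cytochrome P450 panel assay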
Salmon testes DNA = test: acridine orange-DNA binding displacement – biochemical, fluorescence polarization, cherry-picked samples, set 2, artefact control for KSHV LANA DNA-binding inhibitor project, dose response (AID 504727); parameters: species or system Salmonidae
ORF 73 = ORF 73 (Human herpesvirus 8, UniProt O40947); test: KSHV LANA DNA-binding disruption – biochemical, fluorescence polarization, cherry-picked samples, dose response (AID 504725); parameters: species or system Human gammaherpesvirus 8;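 also: fluorescence polarization of a labeled DNA duplex reporting LANA DNA binding; potency is for inhibitors that block LANA binding to the DNA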
ORF 73, sequence (O40947 whole entry): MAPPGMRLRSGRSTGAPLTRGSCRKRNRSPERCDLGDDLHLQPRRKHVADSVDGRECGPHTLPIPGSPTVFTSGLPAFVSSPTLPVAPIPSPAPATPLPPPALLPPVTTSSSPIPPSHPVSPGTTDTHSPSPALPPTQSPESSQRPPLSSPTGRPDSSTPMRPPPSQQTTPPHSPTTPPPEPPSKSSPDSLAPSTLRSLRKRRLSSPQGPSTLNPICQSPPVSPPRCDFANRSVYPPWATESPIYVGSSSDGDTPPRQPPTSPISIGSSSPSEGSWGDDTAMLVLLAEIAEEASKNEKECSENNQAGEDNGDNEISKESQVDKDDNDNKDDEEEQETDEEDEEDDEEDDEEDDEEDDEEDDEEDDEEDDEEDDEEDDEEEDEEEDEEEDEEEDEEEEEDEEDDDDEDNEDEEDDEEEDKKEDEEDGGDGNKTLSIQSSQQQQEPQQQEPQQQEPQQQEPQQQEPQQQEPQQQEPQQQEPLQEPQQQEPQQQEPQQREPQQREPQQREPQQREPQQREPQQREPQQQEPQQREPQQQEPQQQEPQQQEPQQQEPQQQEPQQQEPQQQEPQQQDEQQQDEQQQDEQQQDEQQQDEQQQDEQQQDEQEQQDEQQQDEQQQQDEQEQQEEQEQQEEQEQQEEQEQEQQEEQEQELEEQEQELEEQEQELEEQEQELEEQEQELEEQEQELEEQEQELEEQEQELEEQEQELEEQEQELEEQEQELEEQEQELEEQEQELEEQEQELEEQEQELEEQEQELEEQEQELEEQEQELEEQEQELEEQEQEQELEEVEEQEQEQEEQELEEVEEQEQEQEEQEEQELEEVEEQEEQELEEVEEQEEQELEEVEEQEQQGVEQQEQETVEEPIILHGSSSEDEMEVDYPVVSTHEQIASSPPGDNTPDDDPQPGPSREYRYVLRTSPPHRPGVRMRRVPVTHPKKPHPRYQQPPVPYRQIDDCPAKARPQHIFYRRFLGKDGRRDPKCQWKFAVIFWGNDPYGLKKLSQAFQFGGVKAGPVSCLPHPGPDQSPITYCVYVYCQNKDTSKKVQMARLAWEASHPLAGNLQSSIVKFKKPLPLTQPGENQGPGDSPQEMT

[10] = molecular target: UDP-galactopyranose mutase (Mycobacterium tuberculosis, UniProt P9WIQ1); test: Inhibitors of Mycobacterium tuberculosis UDP-galactopyranose mutase (UGM) enzyme Measured in Biochemical System Using Plate Reader - 2105-02_Inhibitor_Dose_CherryPick_Activity. [Related pubchem assays (depositor defined):AID504439]
UDP-galactopyranose mutase, sequence (P9WIQ1 whole entry): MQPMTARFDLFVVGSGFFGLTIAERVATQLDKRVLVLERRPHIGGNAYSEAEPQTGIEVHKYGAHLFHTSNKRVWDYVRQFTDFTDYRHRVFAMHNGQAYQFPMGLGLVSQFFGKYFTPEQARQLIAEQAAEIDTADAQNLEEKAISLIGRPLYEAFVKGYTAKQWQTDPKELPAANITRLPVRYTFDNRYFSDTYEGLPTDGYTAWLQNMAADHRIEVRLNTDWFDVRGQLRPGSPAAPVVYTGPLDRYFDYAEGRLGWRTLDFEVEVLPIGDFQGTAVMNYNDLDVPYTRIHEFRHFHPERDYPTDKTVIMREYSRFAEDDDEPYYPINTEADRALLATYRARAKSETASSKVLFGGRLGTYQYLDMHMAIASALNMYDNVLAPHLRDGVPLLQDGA

HEK293 = test: cells; conditions: Homo sapiens;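 also: cells exposed to compound for 14 hours overnight before viability readout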
Tumor necrosis factor = Tumor necrosis factor (Homo sapiens, UniProt P01375); test: analog potency on TNFa NF-kB signaling – cell-based, revised, SAR follow-up (AID 2337); type: functional
[11] = molecular target: Nucleotide-binding oligomerization domain-containing protein 2 (Homo sapiens, UniProt Q9HC29); test: PubChem AID 2334; type: functional
[12] = molecular target: Nucleotide-binding oligomerization domain-containing protein 1 (Homo sapiens, UniProt Q9Y239); test: blockers of NOD1 pathway activity – revised, SAR follow-up (AID 2333); type: functional
[13] = molecular target: T4, Kappa-type opioid receptor (Homo sapiens, UniProt P41145); type: functional
T4 sequence (P41145 whole entry): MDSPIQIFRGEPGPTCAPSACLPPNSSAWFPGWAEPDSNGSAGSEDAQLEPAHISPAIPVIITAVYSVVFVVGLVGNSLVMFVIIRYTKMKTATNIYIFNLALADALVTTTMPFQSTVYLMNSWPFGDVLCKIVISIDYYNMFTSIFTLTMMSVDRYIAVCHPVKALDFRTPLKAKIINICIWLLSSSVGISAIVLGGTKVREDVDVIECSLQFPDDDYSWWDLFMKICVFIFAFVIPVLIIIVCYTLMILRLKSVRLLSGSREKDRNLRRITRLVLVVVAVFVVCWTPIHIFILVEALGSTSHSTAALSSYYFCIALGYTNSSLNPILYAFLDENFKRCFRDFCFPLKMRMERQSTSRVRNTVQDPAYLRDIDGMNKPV

[14] = molecular target: T4, Kappa-type opioid receptor; type: functional; remark: listed apart in the source
Mu-type opioid receptor = Mu-type opioid receptor (Homo sapiens, UniProt P35372); test: HTS Image-Based Screen for Agonists of the MOR Receptor. [Related pubchem assays (depositor defined):AID1777, AID1785, AID1786, AID2133]; type: functional;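 also: imaging of beta-arrestin GFP recruitment into spots after receptor activation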
[15] = molecular target: T5, Delta-type opioid receptor (Homo sapiens, UniProt P41143); test: HTS Image-Based Screen for Agonists of the DOR Receptor. [Related pubchem assays (depositor defined):AID1777, AID1786, AID2133]; type: functional
T5 sequence (P41143 whole entry): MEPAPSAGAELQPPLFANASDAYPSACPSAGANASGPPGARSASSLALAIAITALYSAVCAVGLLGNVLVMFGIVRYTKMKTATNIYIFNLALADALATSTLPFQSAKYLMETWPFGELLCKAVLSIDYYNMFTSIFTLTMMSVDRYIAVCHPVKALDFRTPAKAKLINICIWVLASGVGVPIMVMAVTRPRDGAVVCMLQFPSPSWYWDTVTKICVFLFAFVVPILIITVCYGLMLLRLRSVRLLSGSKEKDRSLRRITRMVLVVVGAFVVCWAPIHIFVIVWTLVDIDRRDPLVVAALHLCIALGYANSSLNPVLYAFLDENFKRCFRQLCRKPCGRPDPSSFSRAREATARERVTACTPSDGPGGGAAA

Beta-galactosidase = Beta-galactosidase (Escherichia coli, UniProt Q8VNN2); type: functional
[16] = molecular target: T5, Delta-type opioid receptor; test: HTS Image-Based Screen for Antagonists of the DOR Receptor. [Related pubchem assays (depositor defined):AID1777, AID1785, AID1786, AID2133]; type: functional
[17] = molecular target: Eukaryotic translation initiation factor 4E (Mus musculus, UniProt P63073); test: blockers of eIF4G binding by eIF4E – biochemical, TR-FRET, dose response (AID 855); type: functional;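 also: potency for disrupting eIF4E binding to eIF4GI seen as loss of FRET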
[18] = molecular target: Voltage-dependent T-type calcium channel subunit alpha-1H (Homo sapiens, UniProt O95180); type: functional;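 also: channel activity triggered by adding a high calcium stimulation buffer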
Voltage-dependent T-type calcium channel subunit alpha-1H, sequence (O95180 whole entry): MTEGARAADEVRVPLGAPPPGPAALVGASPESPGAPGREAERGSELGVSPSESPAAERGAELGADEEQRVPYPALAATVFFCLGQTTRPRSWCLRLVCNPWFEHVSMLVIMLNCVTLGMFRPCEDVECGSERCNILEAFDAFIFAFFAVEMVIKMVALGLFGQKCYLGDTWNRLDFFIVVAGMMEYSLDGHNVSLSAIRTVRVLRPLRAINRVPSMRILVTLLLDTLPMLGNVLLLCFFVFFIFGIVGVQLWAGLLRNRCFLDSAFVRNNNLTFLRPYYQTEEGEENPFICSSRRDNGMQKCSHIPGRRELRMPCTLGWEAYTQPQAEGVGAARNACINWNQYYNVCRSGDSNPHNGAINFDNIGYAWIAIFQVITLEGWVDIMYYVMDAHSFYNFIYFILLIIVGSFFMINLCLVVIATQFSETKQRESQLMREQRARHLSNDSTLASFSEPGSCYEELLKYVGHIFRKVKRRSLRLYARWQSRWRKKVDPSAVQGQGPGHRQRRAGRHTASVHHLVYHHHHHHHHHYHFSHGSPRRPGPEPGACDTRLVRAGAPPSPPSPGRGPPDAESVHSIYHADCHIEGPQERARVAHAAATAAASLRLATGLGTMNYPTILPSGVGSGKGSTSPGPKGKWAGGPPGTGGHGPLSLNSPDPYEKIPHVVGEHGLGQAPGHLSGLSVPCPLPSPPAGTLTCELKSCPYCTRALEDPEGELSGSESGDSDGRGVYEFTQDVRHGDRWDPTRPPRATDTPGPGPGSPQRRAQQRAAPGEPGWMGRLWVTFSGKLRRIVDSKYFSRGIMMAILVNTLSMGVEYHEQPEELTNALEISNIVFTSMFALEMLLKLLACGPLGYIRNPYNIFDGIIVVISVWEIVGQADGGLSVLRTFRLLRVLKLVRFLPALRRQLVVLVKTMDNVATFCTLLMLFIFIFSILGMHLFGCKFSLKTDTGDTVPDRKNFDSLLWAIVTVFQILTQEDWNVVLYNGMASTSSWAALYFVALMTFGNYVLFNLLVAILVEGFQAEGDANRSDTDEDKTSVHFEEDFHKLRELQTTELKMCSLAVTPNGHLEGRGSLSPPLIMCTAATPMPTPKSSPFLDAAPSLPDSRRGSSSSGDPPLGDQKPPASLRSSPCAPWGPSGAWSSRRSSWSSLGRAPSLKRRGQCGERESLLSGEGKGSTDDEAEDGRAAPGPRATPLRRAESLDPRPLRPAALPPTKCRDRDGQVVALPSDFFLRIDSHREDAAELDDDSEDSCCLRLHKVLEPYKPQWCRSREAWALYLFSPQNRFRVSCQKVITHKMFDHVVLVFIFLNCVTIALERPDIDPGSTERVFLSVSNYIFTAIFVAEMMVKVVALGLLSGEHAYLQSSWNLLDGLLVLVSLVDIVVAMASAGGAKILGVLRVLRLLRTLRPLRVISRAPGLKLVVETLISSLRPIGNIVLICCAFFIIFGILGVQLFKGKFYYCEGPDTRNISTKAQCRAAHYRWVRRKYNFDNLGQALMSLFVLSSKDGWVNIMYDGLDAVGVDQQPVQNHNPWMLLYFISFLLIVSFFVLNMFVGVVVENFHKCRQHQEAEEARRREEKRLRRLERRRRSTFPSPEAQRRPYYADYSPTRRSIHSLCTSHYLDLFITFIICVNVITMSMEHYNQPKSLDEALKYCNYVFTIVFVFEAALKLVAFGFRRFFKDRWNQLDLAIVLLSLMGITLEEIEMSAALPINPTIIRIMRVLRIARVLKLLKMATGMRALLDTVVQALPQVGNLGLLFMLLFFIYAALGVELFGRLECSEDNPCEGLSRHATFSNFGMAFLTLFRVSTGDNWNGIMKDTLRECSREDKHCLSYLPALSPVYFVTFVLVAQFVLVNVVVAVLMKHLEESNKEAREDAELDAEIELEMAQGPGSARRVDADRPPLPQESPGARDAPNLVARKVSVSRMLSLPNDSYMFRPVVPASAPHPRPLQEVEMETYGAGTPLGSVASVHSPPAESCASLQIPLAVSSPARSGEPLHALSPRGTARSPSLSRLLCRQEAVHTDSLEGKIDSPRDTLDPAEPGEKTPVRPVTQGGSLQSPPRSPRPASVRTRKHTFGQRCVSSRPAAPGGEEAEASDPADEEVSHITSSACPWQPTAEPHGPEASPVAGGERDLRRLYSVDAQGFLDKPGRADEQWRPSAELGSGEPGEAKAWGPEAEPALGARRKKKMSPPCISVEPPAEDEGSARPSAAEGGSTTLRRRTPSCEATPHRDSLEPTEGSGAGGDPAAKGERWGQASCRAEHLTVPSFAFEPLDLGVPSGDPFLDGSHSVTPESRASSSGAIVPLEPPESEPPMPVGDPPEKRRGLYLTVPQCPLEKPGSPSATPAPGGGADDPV

[19] = molecular target: T6, Sphingosine 1-phosphate receptor 4 (Homo sapiens, UniProt O95977); test: Fluorescence dose response cell-based high throughput screening assay for agonists of the Sphingosine 1-Phosphate Receptor 4 (S1P4). [Related pubchem assays: 1509 (Primary screen.), 1523 (Confirmation screen in triplicates.)]; type: functional
T6 sequence (O95977 whole entry): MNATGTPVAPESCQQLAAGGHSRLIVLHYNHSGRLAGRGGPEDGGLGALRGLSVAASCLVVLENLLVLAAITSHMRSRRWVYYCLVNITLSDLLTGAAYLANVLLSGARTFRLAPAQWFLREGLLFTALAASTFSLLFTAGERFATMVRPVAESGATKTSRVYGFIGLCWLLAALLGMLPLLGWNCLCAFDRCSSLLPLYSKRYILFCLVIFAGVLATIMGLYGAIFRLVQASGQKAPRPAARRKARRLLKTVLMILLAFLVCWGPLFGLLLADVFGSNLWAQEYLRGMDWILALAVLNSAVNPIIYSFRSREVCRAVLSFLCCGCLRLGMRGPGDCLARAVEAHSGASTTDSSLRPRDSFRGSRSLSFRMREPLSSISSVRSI

[20] = molecular target: Sphingosine 1-phosphate receptor 1 (Homo sapiens, UniProt P21453); test: Fluorescence-based counterscreen assay for S1P4 agonists: Cell-based dose response high throughput screening assay to identify agonists of the Sphingosine 1-Phosphate Receptor 1 (S1P1). [Related pubchem assays (depositor defined):AID1509, AID1523, AID1801, AID463107, AID463118, AID463119, AID463122, AID463123, AID463129, AID463225, AID504400, AID504460]; type: functional

In the case of `O=c1c2cc(Br)ccc2nc(-c2cccc(C(F)(F)F)c2)n1O`, the EC50 [1] is reported as 28.1 µM (active), the EC50 [2] is reported as 4.04 µM (active) and the IC50 (cells) is reported as 8.38 µM (active). The EC50 [3] was 0.451 µM (active), the EC50 [4] was 15.5 µM (inconclusive) and the CC50 [5] was 15.8 µM (active). For the same compound, the EC50 [6] was 5.96 µM (active), the CC50 [7] was 13.9 µM (active) and the EC50 [8] was 17.3 µM (active). For the same compound, the CC50 [9] was 11.6 µM (active).
In the case of `O=C(O[C@H]1C[N@+]2(Br)CC[C@@H]1CC2)C(O)(c1ccccc1)c1ccccc1`, the AC50 (Cytochrome P450 3A4) is reported as “inactive”, the AC50 (Cytochrome P450 1A2) is reported as “inactive” and the AC50 (Cytochrome P450 2C19) is reported as “inactive”. For the same compound, the AC50 (Cytochrome P450 2C9) was “inactive” and the AC50 (Cytochrome P450 2D6) was “inactive”.
With `Cn1cc(/C=C2\C(=O)NC(=O)N(c3ccccc3)C2=O)c2ccccc21` the AC50 (Salmon testes DNA) was 92.2 µM (active), the AC50 (ORF 73) was 41.3 µM (active) and the AC50 [10] was 71.9 µM (active).
For `O=C(Nc1nc2ccccc2n1Cc1ccccc1Cl)c1cccs1`, the IC50 (HEK293) was > 20 µM (inactive), the IC50 (Tumor necrosis factor) was > 20 µM (inactive) and the IC50 [11] was > 20 µM (inactive). The IC50 [12] was > 20 µM (inactive).
With `CCc1nc2sc3c(Cl)ncnc3c2c2c1CCCC2` the IC50 [13] was 5.42 µM (active), the IC50 [14] was > 32 µM and the EC50 (Mu-type opioid receptor) was > 32 µM (inactive). The EC50 [15] was > 32 µM (inactive), the EC50 (Beta-galactosidase) was > 31.5 µM (inactive) and the IC50 [16] was > 32 µM (inactive).
In the case of `CCOc1ccccc1OCCCCCc1c(C)n[nH]c1C`, the IC50 [17] is reported as > 64 µM (inactive), the EC50 [18] is reported as 8.55 µM (active) and the EC50 [19] is reported as > 49.8 µM (not active). For the same compound, the EC50 [20] was > 49.8 µM (inactive).
